The source of these data is patent US20020183519A1, “Antithrombotic carboxylic acid amides” (priority 2001, published 2002).

Each structure is given as a SMILES string.

The assay addresses T1, human factor Xa (Homo sapiens, UniProt P00742).
T1 construct: released from the colourless chromogenic substrate by human factor Xa; purchased Roche
Description: Inhibition of factor Xa, enzyme-kinetic measurement with chromogenic substrate. The note with it: human factor Xa (Roche) 0.175 U/ml, substrate Chromozym X 200 μMol/l, pH 8.0, 37° C., 405 nm. Type of assay: biochemical. The protocol: Method: Enzyme-kinetic measurement with chromogenic substrate. The quantity of p-nitroaniline (pNA) released from the colourless chromogenic substrate by human factor Xa is determined photometrically at 405 nm. It is proportional to the activity of the enzyme used. The inhibition of the enzyme activity by the test substance (in relation to the solvent control) is determined at various concentrations of test substance and from this the IC50 is calculated, as the concentration which inhibits the factor Xa used by 50%.
Material: Tris(hydroxymethyl)-aminomethane buffer (100 mmol) and sodium chloride (150 mmol), pH 8.0
Factor Xa (Roche), spec. activity: 10 U/0.5 ml, final concentration: 0.175 U/ml for each reaction mixture
Substrate Chromozym X (Roche), final concentration: 200 μMol/l for each reaction mixture
Procedure: 10 μl of a 23.5-times concentrated starting solution of the test substance or solvent (control), 175 μl of tris(hydroxymethyl)-aminomethane buffer and 25 μl of a 1.65 U/ml Factor Xa working solution are incubated for 10 minutes at 37° C. After the addition of 25 μl of Chromozym X working solution ([…]) the sample is measured in a photometer (SpectraMax 250) at 405 nm for 150 seconds at 37° C.
1. Determining the maximum increase (deltaOD/minutes) over 3 measuring points.
2. Determining the % inhibition based on the solvent control.
3. Plotting a dosage/activity curve (% inhibition vs substance concentration).
4. Determining the IC50 by interpolating the X value (substance concentration) of the dosage/activity curve at Y=50% inhibition.

T1 sequence (P00742 235-488 limits assumed): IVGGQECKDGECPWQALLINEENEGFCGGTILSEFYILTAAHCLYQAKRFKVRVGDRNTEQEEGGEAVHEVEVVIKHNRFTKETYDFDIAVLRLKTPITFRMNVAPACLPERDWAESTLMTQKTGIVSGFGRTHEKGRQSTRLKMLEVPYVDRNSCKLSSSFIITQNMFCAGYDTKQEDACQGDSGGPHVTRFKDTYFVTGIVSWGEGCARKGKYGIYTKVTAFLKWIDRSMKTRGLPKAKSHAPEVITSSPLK
T1 sequence (P00742 41-179 partner limits assumed): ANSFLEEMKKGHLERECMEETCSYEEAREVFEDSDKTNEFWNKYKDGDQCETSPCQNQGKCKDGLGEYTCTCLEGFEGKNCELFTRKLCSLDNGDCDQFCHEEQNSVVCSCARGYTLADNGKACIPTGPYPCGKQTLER

The term IC50 denotes the concentration at which inhibition is half-maximal. Read a low IC50 as inhibition by little substance. `Cc1cc(NC(=O)Cc2cc(C(=N)N)ccc2O)ccc1-c1ncnc2c1CCC2` [(3)]: the midpoint of inhibition, the IC50, lay at 0.062 µM.

In turn, `N=C(N)c1ccc(O)c(CNC(=O)c2ccc(-n3nc(CN)c4c3CCC4)c(C(F)(F)F)c2)c1` [(6)] showed an IC50 of 0.007 µM.

`COC(=O)c1nn(-c2ccc(C(=O)NCc3cc(C(=N)N)ccc3O)cc2C(F)(F)F)c2c1CCC2` [(9)]: half-maximal inhibition (IC50) was put at 0.024 µM.

Compound `CCOC(=O)CC(NC(=O)c1ccc(-n2nc(CN)c3c2CCC3)c(C(F)(F)F)c1)c1cccc(C(=N)N)c1` (stereo not drawn) [(7)] returned an IC50 of 0.0075 µM.

With `Cc1nn(-c2ccc(C(=O)NCc3cc(C(=N)N)ccc3O)cc2C(F)(F)F)c2c1CCC2` [(4)], the midpoint of inhibition, the IC50, lay at 0.015 µM.

`Cc1cc(NC(=O)Cc2cc(C(=N)N)ccc2O)ccc1-n1cnc2c1CCCC2` [(2)] displayed an IC50 of 0.081 µM.

`Cc1cc(NC(=O)Cc2cc(C(=N)N)ccc2O)ccc1-n1c(N2CCCC2)nc2ccccc21` [(1)] gave a half-maximal inhibitory concentration (IC50) of 0.14 µM.

Compound `CCOC(=O)CC(NC(=O)c1ccc(-n2cnc3c2CCCC3)c(C(F)(F)F)c1)c1cccc(C(=N)N)c1` (stereo not drawn) [(8)] showed an IC50 of 0.028 µM.

In turn, `CNC(=O)c1nn(-c2ccc(C(=O)NCc3cc(C(=N)N)ccc3O)cc2C(F)(F)F)c2c1CCC2` [(5)] gave an IC50 of 0.016 µM.
